Assay results: ChEMBL document CHEMBL6074649, “An insight into recent developments in imidazole based heterocyclic compounds as anticancer agents: Synthesis, SARs, and mechanism of actions” (Eur J Med Chem, 2024)
Converted amounts (≈) assume the structure as drawn.

How the values were obtained:
NCI-H1299 = experiment: Anticancer activity against human NCI-H1299 cells by MTT assay; assay type: functional, cell-based
[1] = Anticancer activity against human UKF-NB-3 cells by MTT assay; assay type: functional, cell-based
A549 [2] = experiment: Anticancer activity against human A549 cells by MTT assay; assay type: functional, cell-based
Caco-2 = experiment: Cytotoxicity against human Caco-2 cells assessed as reduction in cell growth measured for 24 hrs by MTT assay; assay type: functional, cell-based; settings: Caco-2, 24 h
MCF7 [3] = experiment: Cytotoxicity against human MCF7 cells assessed as reduction in cell growth measured for 24 hrs by MTT assay; assay type: functional, cell-based; settings: MCF7, 24 h
HepG2 [4] = experiment: Cytotoxicity against human HepG2 cells assessed as reduction in cell growth incubated for 24 hrs by MTT assay; assay type: functional, cell-based; settings: HepG2, 24 h
HeLa [5] = experiment: Antiproliferative activity against human HeLa cells assessed as reduction in cell growth incubated for 48 hrs by MTT assay; assay type: functional, cell-based
K562 = experiment: Antiproliferative activity against human K562 cells assessed as reduction in cell growth incubated for 48 hrs by MTT assay; assay type: functional, cell-based; settings: K562, 48 h
HepG2 [6] = experiment: Cytotoxicity against human HepG2 cells assessed as reduction in cell growth incubated for 24 hrs by SRB assay; assay type: functional, cell-based; settings: HepG2, 24 h
MCF7 [7] = experiment: Cytotoxicity against human MCF7 cells assessed as reduction in cell growth incubated for 24 hrs by SRB assay; assay type: functional, cell-based; settings: MCF7, 24 h
MCF7 [8] = experiment: Cytotoxicity against human MCF7 cells assessed as reduction in cell viability by MTT assay; assay type: functional, cell-based
A2780 = experiment: Cytotoxicity against human A2780 cells assessed as reduction in cell viability by MTT assay; assay type: functional, cell-based
COLO 205 = experiment: Cytotoxicity against human COLO 205 cells assessed as reduction in cell viability by MTT assay; assay type: functional, cell-based
A549 [9] = experiment: Cytotoxicity against human A549 cells assessed as reduction in cell viability by MTT assay; assay type: functional, cell-based
[10] = Antiproliferative activity against human MRC5 cells assessed as reduction in cell viability incubated for 24 hrs by MTT assay; assay type: toxicity, cell-based
A549 [11] = experiment: Antiproliferative activity against human A549 cells assessed as reduction in cell viability incubated for 24 hrs by MTT assay; assay type: functional, cell-based; settings: A549, 24 h
AGS = experiment: Antiproliferative activity against human AGS cells assessed as reduction in cell viability incubated for 24 hrs by MTT assay; assay type: functional, cell-based
[12] = Antiproliferative activity against human HepG2 cells assessed as reduction in cell growth by MTT assay; assay type: toxicity, cell-based
L02 = experiment: Antiproliferative activity against human LO2 cells assessed as reduction in cell growth by MTT assay; assay type: functional, cell-based
MDA-MB-231 = experiment: Antiproliferative activity against human MDA-MB-231 cells assessed as reduction in cell growth by MTT assay; assay type: functional, cell-based
[13] = Antiproliferative activity against human MCF-10A cells assessed as reduction in cell growth by MTT assay; assay type: toxicity, cell-based
MCF7 [14] = experiment: Anticancer activity against human MCF7 cells at 31.25 uM relative to control; assay type: functional
MCF7 [15] = experiment: Anticancer activity against human MCF7 cells at 500 uM relative to control; assay type: functional
MCF7 [16] = experiment: Anticancer activity against human MCF7 cells at 125 uM relative to control; assay type: functional
MCF7 [17] = experiment: Anticancer activity against human MCF7 cells at 7.8 uM relative to control; assay type: functional
MCF7 [18] = experiment: Anticancer activity against human MCF7 cells at 1.5 uM relative to control; assay type: functional
MCF7 [19] = experiment: Anticancer activity against human MCF7 cells at 3.9 uM relative to control; assay type: functional
MCF7 [20] = experiment: Anticancer activity against human MCF7 cells at 1.9 uM relative to control; assay type: functional
MCF7 [21] = experiment: Anticancer activity against human MCF7 cells at 62.5 uM relative to control; assay type: functional
MCF7 [22] = experiment: Anticancer activity against human MCF7 cells at 15.6 uM relative to control; assay type: functional
HepG2 [23] = experiment: Antiproliferative activity against human HepG2 cells assessed as reduction in cell growth incubated for 24 hrs by MTT assay; assay type: functional, cell-based; settings: HepG2, 24 h
[24] = Antiproliferative activity against human MCF7/MX cells assessed as reduction in cell growth incubated for 24 hrs by MTT assay; assay type: functional, cell-based
A549 [25] = experiment: Antiproliferative activity against human A549 cells assessed as reduction in cell growth incubated for 24 hrs by MTT assay; assay type: functional, cell-based; settings: A549, 24 h
MCF7 [26] = experiment: Antiproliferative activity against human MCF7 cells assessed as reduction in cell growth incubated for 24 hrs by MTT assay; assay type: functional, cell-based; settings: MCF7, 24 h
[27] = Anticancer activity against HEK293 cells assessed as reduction in cell viability incubated for 48 hrs by MTT assay; assay type: toxicity, cell-based; settings: human
A549 [28] = experiment: Anticancer activity against human A549 cells assessed as reduction in cell viability incubated for 48 hrs by MTT assay; assay type: functional, cell-based; settings: A549, 48 h
IMR-32 = experiment: Anticancer activity against human IMR-32 cells assessed as reduction in cell viability incubated for 48 hrs by MTT assay; assay type: functional, cell-based; settings: IMR-32, 48 h
HeLa [29] = experiment: Anticancer activity against human HeLa cells assessed as reduction in cell viability incubated for 48 hrs by MTT assay; assay type: functional, cell-based
[30] = Growth inhibition of human Melanoma cell; assay type: functional
[31] = Growth inhibition of human Non-small cell lung cancer cell line; assay type: functional
[32] = Growth inhibition of human Colon cancer cell line; assay type: functional
CNS carcinoma cell = experiment: Growth inhibition of human CNS carcinoma cell; assay type: functional
Leukemia cell = experiment: Growth inhibition of human Leukemia cell; assay type: functional

O=C(Cn1cnc(-c2ccccc2)c1-c1ccccc1)NCCOC(=O)C12CC3CC(CC(C3)C1)C2
IC50 (NCI-H1299): > 100 µg/mL
IC50 [1]: 8.53 µg/mL (≈ 17.6 µM)
IC50 (A549 [2]): 43.2 µg/mL (≈ 89.3 µM)

c1ccc(-c2nc(-c3ccc(OCc4c(COc5ccc(-c6nc(-c7ccccc7)c(-c7ccccc7)[nH]6)cc5)c(COc5ccc(-c6nc(-c7ccccc7)c(-c7ccccc7)[nH]6)cc5)c(COc5ccc(-c6nc(-c7ccccc7)c(-c7ccccc7)[nH]6)cc5)c(COc5ccc(-c6nc(-c7ccccc7)c(-c7ccccc7)[nH]6)cc5)c4COc4ccc(-c5nc(-c6ccccc6)c(-c6ccccc6)[nH]5)cc4)cc3)[nH]c2-c2ccccc2)cc1
IC50 (Caco-2): 32.5 µM
IC50 (MCF7 [3]): 35.4 µM
IC50 (HepG2 [4]): 9.77 µM

COc1cc([C@@H]2c3cc4c(cc3[C@H](n3cnc(C)c3)[C@H]3COC(=O)[C@H]23)OCO4)cc(OC)c1OC
IC50 (HeLa [5]): 4.48 µM
IC50 (K562): 8.8 µM

Cc1nc(S)n(-c2ccccc2)c1-c1cc(-c2ccc(-c3cc(-c4c(C)nc(S)n4-c4ccccc4)nc(N)c3C#N)cc2)c(C#N)c(N)n1
IC50 (HepG2 [6]): 6 µg/mL (≈ 8.71 µM)
IC50 (MCF7 [7]): 1.7 µg/mL (≈ 2.47 µM)

O=[N+]([O-])c1cccc(S(=O)(=O)n2ccnc2-c2ccon2)c1
IC50 (MCF7 [8]): 1.03 µM
IC50 (A2780): 0.63 µM
IC50 (COLO 205): 1.9 µM
IC50 (A549 [9]): 1.14 µM

Cn1ccnc1/C=C/C(=O)c1ccc(F)cc1
IC50 at 24 h [10]: > 100 µM
IC50 (A549 [11]): > 100 µM
IC50 (AGS): 29.3 µM

COc1ccc(C(=O)/C=C/c2nccn2C)cc1
IC50 at 24 h [10]: 67.4 µM
IC50 (A549 [11]): 61.7 µM
IC50 (AGS): 20.9 µM

Clc1ncccc1-c1nc(-c2ccccc2)c(-c2ccccc2)[nH]1
IC50 [12]: 19.7 µM
IC50 (L02): > 50 µM
IC50 (MDA-MB-231): 24.1 µM
IC50 [13]: > 50 µM

Fc1ccc(Cn2c(-c3ccc(Cl)cc3)nc(-c3ccccc3)c2-c2ccccc2)cc1
inhibition at 31.25 µM (MCF7 [14]): 39%
inhibition at 500 µM (MCF7 [15]): 12%
inhibition at 125 µM (MCF7 [16]): 24%
inhibition at 7.8 µM (MCF7 [17]): 63%
inhibition at 1.5 µM (MCF7 [18]): 88%
inhibition at 3.9 µM (MCF7 [19]): 78%
inhibition at 1.9 µM (MCF7 [20]): 65%
inhibition at 62.5 µM (MCF7 [21]): 30%
inhibition at 15.6 µM (MCF7 [22]): 55%

COc1cc(OC)c(S(=O)(=O)n2ccnc2-c2ccon2)c(OC)c1
IC50 (MCF7 [8]): 0.41 µM
IC50 (A2780): 1.22 µM
IC50 (COLO 205): 0.26 µM
IC50 (A549 [9]): 0.29 µM

c1coc(-c2nc(-c3ccc(OCCCOc4ccc(-c5nc(-c6ccco6)c(-c6ccco6)[nH]5)cc4)cc3)[nH]c2-c2ccoc2)c1
IC50 (Caco-2): 327 µM
IC50 (MCF7 [3]): 59.2 µM
IC50 (HepG2 [4]): 8.14 µM

COc1ccc(-c2nc(-c3ccccc3)c(-c3ccccc3)n2Cc2ccc(F)cc2)cc1
inhibition at 31.25 µM (MCF7 [14]): 54%
inhibition at 500 µM (MCF7 [15]): 13%
inhibition at 125 µM (MCF7 [16]): 39%
inhibition at 7.8 µM (MCF7 [17]): 73%
inhibition at 1.5 µM (MCF7 [18]): 82%
inhibition at 3.9 µM (MCF7 [19]): 79%
inhibition at 1.9 µM (MCF7 [20]): 88%
inhibition at 62.5 µM (MCF7 [21]): 41%
inhibition at 15.6 µM (MCF7 [22]): 65%

CCSc1nc(/C=C/C(=O)c2cc(OC)c(OC)c(OC)c2)cn1Cc1ccccc1
IC50 (HepG2 [23]): 22 µM
IC50 [24]: 20.2 µM
IC50 (A549 [25]): 7.05 µM
IC50 (MCF7 [26]): 9.88 µM

O=c1c(-c2nc(-c3ccc(Br)cc3)c(-c3ccc(Br)cc3)[nH]2)coc2ccccc12
IC50 at 48 h [27]: 82.3 µM
IC50 (A549 [28]): 27.1 µM
IC50 (IMR-32): 29.4 µM
IC50 (HeLa [29]): 24.7 µM

Brc1ccc(-c2nc(-c3c[nH]c4ccccc34)[nH]c2-c2ccc(Br)cc2)cc1
IC50 at 48 h [27]: 98.5 µM
IC50 (A549 [28]): 9.52 µM
IC50 (IMR-32): 10.5 µM
IC50 (HeLa [29]): 11.2 µM

COc1cc([C@@H]2c3cc4c(cc3[C@@H](O[C@@H]3O[C@@H]5CO[C@@H](C)O[C@H]5[C@H](O)[C@H]3O)[C@H]3COC(=O)[C@H]23)OCO4)cc(OC)c1O [ETOPOSIDE]
IC50 (MCF7 [8]): 2.11 µM
IC50 (HeLa [5]): 2.99 µM
IC50 (K562): 6 µM
IC50 (A2780): 1.31 µM
IC50 (COLO 205): 0.13 µM

Oc1ccc(/C=C/c2cc(O)cc(O)c2)cc1 [RESVERATROL]
GI50 [30]: 64.6 µM
GI50 [31]: 61.7 µM
GI50 [32]: 56 µM
GI50 (CNS carcinoma cell): 70.8 µM
GI50 (Leukemia cell): 15.9 µM

CC[C@]1(O)C[C@@H]2CN(CCc3c([nH]c4ccccc34)[C@@](C(=O)OC)(c3cc4c(cc3OC)N(C)[C@H]3[C@@](O)(C(=O)OC)[C@H](OC(C)=O)[C@]5(CC)C=CCN6CC[C@]43[C@@H]65)C2)C1.O=S(=O)(O)O [VINBLASTINE SULFATE]
IC50 (HepG2 [6]): 4.6 µg/mL
IC50 (MCF7 [7]): 5.7 µg/mL
